Assay results taken from the NIST ThermoML archive (doi:10.1016/j.tca.2012.08.011).

Experiment: xn = mol fraction of the nth substance listed
Details: 101 kPa, Liquid; for speed of sound: Linear variable-path acoustic interferometer; for mass density: Vibrating tube method

NC1CCCCC1 [cyclohexylamine] + C1CCCCC1
Details	mass density [kg/m3]	speed of sound [m/s]
293.15 K, x1 = 0.0545	782.87	1282.7
293.15 K, x1 = 0.1032	786.84	1287.2
293.15 K, x1 = 0.1514	790.9	1291.9
293.15 K, x1 = 0.204	795.42	1298
293.15 K, x1 = 0.2496	799.41	1303.5
293.15 K, x1 = 0.3052	804.34	1310.7
293.15 K, x1 = 0.3467	808.08	1316.6
293.15 K, x1 = 0.3967	812.57	1323.8
293.15 K, x1 = 0.4025	813.08	1324.5
293.15 K, x1 = 0.4478	817.22	1331.2
293.15 K, x1 = 0.4992	821.91	1339.2
293.15 K, x1 = 0.5538	826.9	1348.3
293.15 K, x1 = 0.6495	835.66	1364.5
293.15 K, x1 = 0.6996	840.25	1373.5
293.15 K, x1 = 0.7535	845.15	1383.2
293.15 K, x1 = 0.8071	850.03	1393
293.15 K, x1 = 0.8555	854.41	1402.2
293.15 K, x1 = 0.8959	858.06	1410.1
293.15 K, x1 = 0.9501	862.93	1420.6
293.15 K, x1 = 1	867.39	1430.5
298.15 K, x1 = 0.0545	778.17	1257.9
298.15 K, x1 = 0.1032	782.14	1262.6
298.15 K, x1 = 0.1514	786.2	1267.6
298.15 K, x1 = 0.204	790.73	1273.8
298.15 K, x1 = 0.2496	794.7	1279.4
298.15 K, x1 = 0.3052	799.64	1286.8
298.15 K, x1 = 0.3467	803.36	1293
298.15 K, x1 = 0.3967	807.88	1300.2
298.15 K, x1 = 0.4025	808.4	1300.9
298.15 K, x1 = 0.4478	812.54	1307.8
298.15 K, x1 = 0.4992	817.25	1315.9
298.15 K, x1 = 0.5538	822.24	1325
298.15 K, x1 = 0.6495	831.02	1341.3
298.15 K, x1 = 0.6996	835.61	1350.4
298.15 K, x1 = 0.7535	840.54	1360.5
298.15 K, x1 = 0.8071	845.43	1370.4
298.15 K, x1 = 0.8555	849.81	1379.6
298.15 K, x1 = 0.8959	853.48	1387.7
298.15 K, x1 = 0.9501	858.37	1398.5
298.15 K, x1 = 1	862.85	1408.8
303.15 K, x1 = 0.0545	773.44	1233.6
303.15 K, x1 = 0.1032	777.42	1238.1
303.15 K, x1 = 0.1514	781.48	1243.5
303.15 K, x1 = 0.204	786.03	1249.7
303.15 K, x1 = 0.2496	790.01	1255.4
303.15 K, x1 = 0.3052	794.94	1263.2
303.15 K, x1 = 0.3467	798.67	1269
303.15 K, x1 = 0.3967	803.19	1276.7
303.15 K, x1 = 0.4025	803.71	1277.4
303.15 K, x1 = 0.4478	807.85	1284.4
303.15 K, x1 = 0.4992	812.59	1292.7
303.15 K, x1 = 0.5538	817.57	1301.8
303.15 K, x1 = 0.6495	826.37	1318.5
303.15 K, x1 = 0.6996	830.97	1327.6
303.15 K, x1 = 0.7535	835.93	1337.7
303.15 K, x1 = 0.8071	840.82	1347.9
303.15 K, x1 = 0.8555	845.22	1357.2
303.15 K, x1 = 0.8959	848.9	1365.3
303.15 K, x1 = 0.9501	853.81	1376.5
303.15 K, x1 = 1	858.31	1387.3
308.15 K, x1 = 0.0545	768.69	1209.3
308.15 K, x1 = 0.1032	772.67	1213.9
308.15 K, x1 = 0.1514	776.74	1219.6
308.15 K, x1 = 0.204	781.3	1225.8
308.15 K, x1 = 0.2496	785.28	1231.6
308.15 K, x1 = 0.3052	790.22	1239.7
308.15 K, x1 = 0.3467	793.96	1245.6
308.15 K, x1 = 0.3967	798.48	1253.5
308.15 K, x1 = 0.4025	799.01	1254.4
308.15 K, x1 = 0.4478	803.16	1261.5
308.15 K, x1 = 0.4992	807.91	1269.9
308.15 K, x1 = 0.5538	812.89	1279
308.15 K, x1 = 0.6495	821.73	1295.7
308.15 K, x1 = 0.6996	826.34	1305
308.15 K, x1 = 0.7535	831.31	1315.5
308.15 K, x1 = 0.8071	836.22	1325.6
308.15 K, x1 = 0.8555	840.63	1334.9
308.15 K, x1 = 0.8959	844.32	1343.1
308.15 K, x1 = 0.9501	849.24	1354.7
308.15 K, x1 = 1	853.76	1366
313.15 K, x1 = 0.0545	763.91	1185.5
313.15 K, x1 = 0.1032	767.89	1189.8
313.15 K, x1 = 0.1514	771.98	1195.5
313.15 K, x1 = 0.204	776.54	1202
313.15 K, x1 = 0.2496	780.53	1207.9
313.15 K, x1 = 0.3052	785.49	1216.3
313.15 K, x1 = 0.3467	789.24	1222.2
313.15 K, x1 = 0.3967	793.77	1230.3
313.15 K, x1 = 0.4025	794.29	1231
313.15 K, x1 = 0.4478	798.45	1238.5
313.15 K, x1 = 0.4992	803.21	1247
313.15 K, x1 = 0.5538	808.21	1256.3
313.15 K, x1 = 0.6495	817.07	1273.3
313.15 K, x1 = 0.6996	821.7	1282.6
313.15 K, x1 = 0.7535	826.67	1292.9
313.15 K, x1 = 0.8071	831.61	1303.4
313.15 K, x1 = 0.8555	836.02	1312.8
313.15 K, x1 = 0.8959	839.74	1321.1
313.15 K, x1 = 0.9501	844.68	1332.8
313.15 K, x1 = 1	849.23	1344.5
318.15 K, x1 = 0.0545	759.09	1162.1
318.15 K, x1 = 0.1032	763.09	1166.2
318.15 K, x1 = 0.1514	767.19	1171.9
318.15 K, x1 = 0.204	771.77	1178.7
318.15 K, x1 = 0.2496	775.77	1184.7
318.15 K, x1 = 0.3052	780.74	1193.1
318.15 K, x1 = 0.3467	784.5	1199.2
318.15 K, x1 = 0.3967	789.02	1207.3
318.15 K, x1 = 0.4025	789.56	1208.2
318.15 K, x1 = 0.4478	793.71	1215.8
318.15 K, x1 = 0.4992	798.49	1224.5
318.15 K, x1 = 0.5538	803.51	1233.9
318.15 K, x1 = 0.6495	812.4	1251.1
318.15 K, x1 = 0.6996	817.05	1260.4
318.15 K, x1 = 0.7535	822.04	1270.9
318.15 K, x1 = 0.8071	827	1281.5
318.15 K, x1 = 0.8555	831.42	1290.9
318.15 K, x1 = 0.8959	835.15	1299.2
318.15 K, x1 = 0.9501	840.12	1311.1
318.15 K, x1 = 1	844.68	1323.1
323.15 K, x1 = 0.0545	754.26	1138.5
323.15 K, x1 = 0.1032	758.27	1142.7
323.15 K, x1 = 0.1514	762.37	1148.4
323.15 K, x1 = 0.204	766.97	1155.2
323.15 K, x1 = 0.2496	770.99	1161.4
323.15 K, x1 = 0.3052	775.97	1169.9
323.15 K, x1 = 0.3467	779.75	1176.2
323.15 K, x1 = 0.3967	784.29	1184.5
323.15 K, x1 = 0.4025	784.82	1185.4
323.15 K, x1 = 0.4478	788.97	1193.2
323.15 K, x1 = 0.4992	793.75	1202
323.15 K, x1 = 0.5538	798.79	1211.6
323.15 K, x1 = 0.6495	807.72	1228.8
323.15 K, x1 = 0.6996	812.4	1238.3
323.15 K, x1 = 0.7535	817.4	1248.9
323.15 K, x1 = 0.8071	822.37	1259.4
323.15 K, x1 = 0.8555	826.82	1269.2
323.15 K, x1 = 0.8959	830.56	1277.6
323.15 K, x1 = 0.9501	835.56	1289.6
323.15 K, x1 = 1	840.14	1301.8
